# Key:
# [1] = target: T1, human Kv3.2 (Homo sapiens, UniProt Q96PR1); test: Manual patch clamp electrophysiology, HEK-293 cells stably expressing human Kv3.2; assay type: cell-based; conditions: for hKv3.2 ECΔ30% increase: concentration increasing current by 30% at the −10 mV step; for hKv3.2 ECΔ5 mV: concentration that shifts activation threshold by 5 mV
# T1 construct: expressed in transfected cells
# T1 sequence (Q96PR1 1-638): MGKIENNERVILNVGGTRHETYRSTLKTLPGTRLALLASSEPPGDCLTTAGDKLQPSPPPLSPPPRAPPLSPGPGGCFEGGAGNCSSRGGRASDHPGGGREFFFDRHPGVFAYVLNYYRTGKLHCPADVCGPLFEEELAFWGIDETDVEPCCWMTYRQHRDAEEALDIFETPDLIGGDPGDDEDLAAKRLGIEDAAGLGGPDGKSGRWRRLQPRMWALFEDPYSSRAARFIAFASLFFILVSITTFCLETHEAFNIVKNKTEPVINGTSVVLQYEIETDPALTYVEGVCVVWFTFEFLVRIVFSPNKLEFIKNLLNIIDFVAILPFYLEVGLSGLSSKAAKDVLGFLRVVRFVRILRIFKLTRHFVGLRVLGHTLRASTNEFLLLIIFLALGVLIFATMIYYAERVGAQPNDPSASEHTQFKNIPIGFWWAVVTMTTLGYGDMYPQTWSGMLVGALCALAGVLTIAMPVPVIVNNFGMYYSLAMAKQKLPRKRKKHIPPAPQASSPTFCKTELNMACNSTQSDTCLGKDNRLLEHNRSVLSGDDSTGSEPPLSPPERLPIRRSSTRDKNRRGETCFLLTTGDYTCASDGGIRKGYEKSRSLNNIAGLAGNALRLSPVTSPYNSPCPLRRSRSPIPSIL
# Description: (§1) Manual Patch Clamp Electrophysiological Evaluation, hKv3.1, hKv3.2, hKv3.3, hKv3.4:
# (§2) HEK-293 cells stably expressing human Kv3.1b, Kv3.2, Kv3.3 or Kv3.4 were used for the experiments.
# (§3) Kv3.1b, Kv3.2: Cells were cultured in MEM medium supplemented with 10% Fetal Bovine Serum, 1% Penicillin/Streptomycin, 2 mM glutamine and 0.6 mg/mL geneticin. Cells were grown to 80-90% confluency at 37° C. and 5% CO2 Kv3.3 or Kv3.4: Cells were cultured in DMEM medium supplemented with 10% Fetal Bovine Serum, 500 ug/mL Geneticidin and 1% Penicillin/Streptomycin. Cells were grown to 80-90% confluency at 37° C. and 5% CO2.
# (§4) On the day of the experiment the cells were detached by TrypLE and resuspended in culture medium. Cells were centrifuged, media removed and the cells were resuspended in extracellular buffer containing (in mM): 130 Na-gluconate, 20 NaCl, 4 KCl, 1 MgCl2, 1.8 CaCl2, 10 HEPES and 5 glucose, pH 7.3 adjusted with NaOH, 310-320 mOsm
# (§5) Patch-clamp recordings were performed using a manual patch-clamp system (Axon Multiclamp 700B, Digidata 1440, pCLAMP 10, Molecular Devices Corporation) with a fast perfusion system (RSC-160 Rapid solution Changer, BioLogic). Whole-cell recordings were carried out using an intracellular solution containing (in mM): 100 K-gluconate, 40 KCl, 10 HEPES, 1 EGTA, 1 MgCl2, pH 7.2 adjusted with KOH, 290-300 mOsm. Cell membrane potentials were held at −80 mV and current voltage-relationship was generated by voltage steps (50 ms duration) from −100 mV to +10 mV (in 10 mV increments) and then back to −100 mV for 50 ms, with inter-sweep interval of 3 s. The peak current amplitude of −10 mV was monitored until stable (<5% change) by using one step voltage protocol. One IV protocol was run as baseline, then compound perfusion was stared and peak current stability was monitored with single step protocol prior to the IV protocol. Single concentrations were measured per cell. Acceptable cells had seal resistance >500 MOhm, Access resistance <10 MOhm, and leak current <200 pA.
# (§6) Data analysis was performed using Clampfit (V10.2) in combination with Microsoft Excel™ (Redmond, Wash., USA). Current voltage relationships were plotted from the peak current (baseline subtracted) at the individual voltage steps normalized to the vehicle addition at 10 mV. The voltage threshold for channel activation was defined as 5% activation of the peak current at 10 mV in presence of vehicle. […] The concentration needed to shift the threshold 5 mV was readout from this curve (ECΔ5 mV), as well as the ability to increase the peak current at the −10 mV step (EC30% increase). […]
# [2] = target: T2, human Kv3.1b (Homo sapiens, UniProt P48547); test: Manual patch clamp electrophysiology, HEK-293 cells stably expressing human Kv3.1b; assay type: cell-based; conditions: for hKv3.1 ECΔ30% increase: concentration increasing current by 30% at the −10 mV step; for hKv3.1 ECΔ5 mV: concentration that shifts activation threshold by 5 mV
# T2 construct: expressed in transfected cells
# T2 sequence (P48547 1-585 isoform P48547-2): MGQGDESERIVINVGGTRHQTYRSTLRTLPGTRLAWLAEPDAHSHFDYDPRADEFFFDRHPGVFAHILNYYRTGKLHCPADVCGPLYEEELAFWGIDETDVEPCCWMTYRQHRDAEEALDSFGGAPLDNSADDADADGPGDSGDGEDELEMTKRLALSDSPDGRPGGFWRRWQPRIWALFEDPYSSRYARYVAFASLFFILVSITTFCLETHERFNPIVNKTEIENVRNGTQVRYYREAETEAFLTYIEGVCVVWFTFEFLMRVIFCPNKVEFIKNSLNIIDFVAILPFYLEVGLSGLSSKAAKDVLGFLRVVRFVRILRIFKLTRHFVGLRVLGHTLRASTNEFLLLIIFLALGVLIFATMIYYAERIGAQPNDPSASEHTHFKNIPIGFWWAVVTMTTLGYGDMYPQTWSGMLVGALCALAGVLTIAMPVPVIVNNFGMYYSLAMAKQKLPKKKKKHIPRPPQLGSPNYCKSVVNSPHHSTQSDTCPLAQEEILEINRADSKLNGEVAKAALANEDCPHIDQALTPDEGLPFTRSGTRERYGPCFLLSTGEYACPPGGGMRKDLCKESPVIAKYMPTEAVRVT
# Description: as §1, §2, §3, §4, §5, §6
hKv3.2 ECΔ30% increase [1] [µM],hKv3.2 ECΔ5 mV [1] [µM],hKv3.1 ECΔ30% increase [2] [µM],hKv3.1 ECΔ5 mV [2] [µM],SMILES
8.2,1.5,1.8,0.6,"Cc1cnc(CNC(=O)c2ccn(S(=O)(=O)c3ccc(F)cc3C)c2)cn1 [Compound 90, 1-(4-fluoro-2-methylbenzene-1-sulfonyl)-N-[(5-methylpyrazin-2-yl)methyl]-1H-pyrrole-3-carboxamide]"
>30,6.0,10.1,3.0,"Cc1ccc(S(=O)(=O)n2ccc(C(=O)NCc3ncco3)c2)cc1 [Compound 86, 1-(4-methylbenzene-1-sulfonyl)-N-[(1,3-oxazol-2-yl)methyl]-1H-pyrrole-3-carboxamide]"

# Source: US20200131156A1, “ARYLSULFONYLPYROLECARBOXAMIDE DERIVATIVES AS Kv3 POTASSIUM CHANNEL ACTIVATORS” (H. Lundbeck A/S, priority 2018, published 2020)
